Earlier results on 1 compound are cited in patent US20120046321A1, “METHODS OF TREATING ATRIAL FIBRILLATION WITH P38 INHIBITOR COMPOUNDS” (INTERMUNE, INC., priority 2005, published 2012).

Structures are written as SMILES.

For the data set, the system named is canine model, VTP-induced CHF. Particulars: Li et al., Circulation 2001; cited from earlier work.

Turning to `CCOC(=O)[C@H](CCc1ccccc1)N[C@@H](C)C(=O)N1CCC[C@H]1C(=O)O` [enalapril], the “Ang II concentration” value is recorded as “reduction”, the Arrhythmogenic atrial remodeling result is “less” and the ERK activation result is listed as “reduction”.
